In patent US9012651B2, “TRPV3 modulators” (AbbVie Inc., priority 2011, dated 2015):

These compounds were tested against human TRPV3 receptors (Homo sapiens (Human), UniProt Q8NET8) (assay: Calcium flux assay (FLIPR TETRA), inhibition of the 2-APB response). Details: recombinant HEK293 cells stably expressing TRPV3, Calcium-4 dye, 2-APB at its EC80.
Type: cell-based
Description: (i) In Vitro Methods-Calcium Flux Assays:
Experiments were conducted using the FLIPR^TETRA®. On the day prior to the experiment, recombinant HEK293 cells that stably express human and mouse TRPV3 were removed from tissue culture flasks and plated in growth medium at 20,000 cells/well into black-walled clear-bottom 384-well Biocoat™ poly-D-lysine assay plates (BD Biosciences, Bedford, Mass.) using a Multidrop® dispenser (ThermoScientific, Waltham, Mass.). […] Cells were incubated for 90-120 minutes in the dark. Compounds were dissolved in DMSO to prepare a 10 mM stock solution. The intensity of the fluorescence was captured and digitally transferred to an interfaced PC. The peak increase in fluorescence over baseline (relative fluorescence units) was calculated and expressed as the percentage of the maximal 2-APB (2-aminoethoxyldiphenyl borate) response (in the absence of compound).

Chain of human TRPV3 receptors (Q8NET8 whole entry): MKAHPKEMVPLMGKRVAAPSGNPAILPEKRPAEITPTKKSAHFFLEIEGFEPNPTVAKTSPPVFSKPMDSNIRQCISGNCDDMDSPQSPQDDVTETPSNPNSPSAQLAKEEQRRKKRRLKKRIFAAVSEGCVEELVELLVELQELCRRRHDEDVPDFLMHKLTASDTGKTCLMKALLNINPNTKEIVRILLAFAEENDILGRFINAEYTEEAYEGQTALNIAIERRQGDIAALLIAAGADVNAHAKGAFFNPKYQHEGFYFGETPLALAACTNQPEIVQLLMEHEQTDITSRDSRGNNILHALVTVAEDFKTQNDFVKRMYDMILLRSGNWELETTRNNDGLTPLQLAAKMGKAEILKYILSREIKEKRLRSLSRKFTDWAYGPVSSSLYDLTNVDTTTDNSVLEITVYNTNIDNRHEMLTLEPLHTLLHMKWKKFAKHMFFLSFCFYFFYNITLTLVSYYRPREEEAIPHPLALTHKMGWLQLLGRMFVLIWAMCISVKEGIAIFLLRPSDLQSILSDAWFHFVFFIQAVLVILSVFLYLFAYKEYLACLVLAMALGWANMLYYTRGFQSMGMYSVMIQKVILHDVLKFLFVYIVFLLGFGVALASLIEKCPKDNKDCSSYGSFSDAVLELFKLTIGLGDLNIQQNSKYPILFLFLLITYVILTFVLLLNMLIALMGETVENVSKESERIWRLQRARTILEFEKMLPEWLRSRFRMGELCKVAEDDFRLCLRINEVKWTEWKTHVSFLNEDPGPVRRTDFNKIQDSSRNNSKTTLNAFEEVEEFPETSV

Compared with O[C@H]1CCCC[C@@H]1CNCc1ccnc(-c2ccc(C(F)(F)F)cc2)n1 [Example 165, (1S,2R)-2-{[({2-[4-(trifluoromethyl)phenyl]pyrimidin-4-yl}methyl)amino]methyl}cyclohexanol], C[C@@H](O)[C@@H](CO)NCc1ccnc(-c2ccc(C(F)(F)F)cc2)n1 [Example 150, (2R,3R)-2-[({2-[4-(trifluoromethyl)phenyl]pyrimidin-4-yl}methyl)amino]butane-1,3-diol] is lower in IC50: > 20000 nM for the first, 3820 nM for the second. The second is the more potent here.

First: CC(C)[C@H](CO)NCc1nc(-c2cccc(C(=O)N3CCCCC3)c2)ccc1F [Example 45, {3-[5-fluoro-6-({[(2R)-1-hydroxy-3-methylbutan-2-yl]amino}methyl)pyridin-2-yl]phenyl}(piperidin-1-yl)methanone]
Second: CC(C)[C@H](CO)NCc1nc(-c2cccc(-n3cccn3)c2)ccc1F [Example 260, (2R)-2-[({3-fluoro-6-[3-(1H-pyrazol-1-yl)phenyl]pyridin-2-yl}methyl)amino]-3-methylbutan-1-ol]
The IC50 of the first is 12-fold higher: 3470 nM for the first, 300 nM for the second.

Compared with CC(C)[C@H](CO)NCc1nc(-c2ccc(OCC(F)(F)F)nc2)ccc1F [Example 68, (2R)-2-({[5-fluoro-6′-(2,2,2-trifluoroethoxy)-2,3′-bipyridin-6-yl]methyl}amino)-3-methylbutan-1-ol], CC(C)[C@H](CO)NCc1nc(-c2ccnc(C(F)(F)F)c2)ccc1F [Example 31, (2R)-2-({[5-fluoro-2′-(trifluoromethyl)-2,4′-bipyridin-6-yl]methyl}amino)-3-methylbutan-1-ol] is 3.7-fold higher in IC50: 590 nM for the first, 2190 nM for the second. The first is the more potent here.

First: CC(C)[C@H](CO)NCc1nc(-c2cccc(C(=O)N(C)Cc3ccccc3)c2)ccc1F [Example 58, N-benzyl-3-[5-fluoro-6-({[(2R)-1-hydroxy-3-methylbutan-2-yl]amino}methyl)pyridin-2-yl]-N-methylbenzamide]
Second: CC(C)[C@H](CO)NCc1nc(-c2ccc(OC(F)(F)F)cc2)ccc1F [Example 19, (2R)-2-[({3-fluoro-6-[4-(trifluoromethoxy)phenyl]pyridin-2-yl}methyl)amino]-3-methylbutan-1-ol]
The IC50 of the first is 6.5-fold higher: 1490 nM for the first, 230 nM for the second. The second is the more potent here.

First: CCC[C@H](CO)NCc1nc(-c2ccc(C(F)(F)F)cc2)ccc1F [Example 83, (2R)-2-[({3-fluoro-6-[4-(trifluoromethyl)phenyl]pyridin-2-yl}methyl)amino]pentan-1-ol]
Second: COCC(CO)NCc1nc(-c2ccc(C(F)(F)F)cc2)ccc1F (stereo not drawn) [Example 74, 2-[({3-fluoro-6-[4-(trifluoromethyl)phenyl]pyridin-2-yl}methyl)amino]-3-methoxypropan-1-ol]
The IC50 of the first is 8-fold lower: 460 nM for the first, 3680 nM for the second.

Going from CC(C)[C@H](CO)NCc1ccnc(-c2ccc(S(=O)(=O)C(F)(F)F)cc2)n1 [Example 207, (2R)-3-methyl-2-{[(2-{4-[(trifluoromethyl)sulfonyl]phenyl}pyrimidin-4-yl)methyl]amino}butan-1-ol] to CC[C@H](CO)NCc1nc(-c2ccc(C(F)(F)F)nc2)ccc1F [Example 78, (2R)-2-({[5-fluoro-6′-(trifluoromethyl)-2,3′-bipyridin-6-yl]methyl}amino)butan-1-ol], the IC50 rises from 680 nM to 10200 nM (15-fold). The first is the more potent here.

Going from CC(C)[C@H](CO)NCc1nc(N2CCc3ccc(C(F)(F)F)cc3C2)ccc1F [Example 103, (2R)-2-[({3-fluoro-6-[7-(trifluoromethyl)-3,4-dihydroisoquinolin-2(1H)-yl]-pyridin-2-yl}methyl)amino]-3-methylbutan-1-ol] to OC[C@H](NCc1nc(-c2ccc(C(F)(F)F)cc2)ccc1F)C1CC1 [Example 29, (2R)-2-cyclopropyl-2-[({3-fluoro-6-[4-(trifluoromethyl)phenyl]pyridin-2-yl}methyl)amino]ethano 1], the IC50 rises from 260 nM to 410 nM (1.6-fold). The first is the more potent here.

CC(C)[C@H](CO)NCc1nc([C@H]2CC[C@H](C(F)(F)F)CC2)ccc1F [Example 258, (2R)-2-[({3-fluoro-6-[trans-4-(trifluoromethyl)cyclohexyl]pyridin-2-yl}methyl)amino]-3-methylbutan-1-ol] was tested, and the IC50 was 290 nM.
